Measured values reported in publication PMC7385619, “A triple action CDK4/6-PI3K-BET inhibitor with augmented cancer cell cytotoxicity” (Cell Discovery, 2020).

Assays:
Type in all cases: binding
bromodomain panel = assay: BROMOscan assay (Eurofins DiscoverX)
kinome (kinase panel) [1] = target: T1, kinome (kinase panel) (Homo sapiens, UniProt Q04912); assay: KINOMEscan assay (Eurofins DiscoverX); conditions: MST1R; 1000 nM; read-out: Percent Control
T1 construct: purchased Eurofins DiscoverX

kinome (kinase panel) [2] = target: T2, kinome (kinase panel) (Homo sapiens, UniProt P22455); assay: KINOMEscan assay (Eurofins DiscoverX); conditions: FGFR4; 1000 nM; read-out: Percent Control
T2 construct: purchased Eurofins DiscoverX

kinome (kinase panel) [3] = target: T3, kinome (kinase panel) (Homo sapiens, UniProt Q02750); assay: KINOMEscan assay (Eurofins DiscoverX); conditions: MEK1 (Entrez MAP2K1); 1000 nM; read-out: Percent Control
T3 construct: purchased Eurofins DiscoverX

kinome (kinase panel) [4] = target: T4, kinome (kinase panel) (Homo sapiens, UniProt P29376); assay: KINOMEscan assay (Eurofins DiscoverX); conditions: LTK; 1000 nM; read-out: Percent Control
T4 construct: purchased Eurofins DiscoverX

kinome (kinase panel) [5] = target: T5, kinome (kinase panel) (Homo sapiens, UniProt Q96J92); assay: KINOMEscan assay (Eurofins DiscoverX); conditions: WNK4; 1000 nM; read-out: Percent Control
T5 construct: purchased Eurofins DiscoverX

kinome (kinase panel) [6] = target: T6, kinome (kinase panel) (Homo sapiens, UniProt Q8TDC3); assay: KINOMEscan assay (Eurofins DiscoverX); conditions: BRSK1; 1000 nM; read-out: Percent Control
T6 construct: purchased Eurofins DiscoverX

kinome (kinase panel) [7] = target: T7, kinome (kinase panel) (Homo sapiens, UniProt Q9BX84); assay: KINOMEscan assay (Eurofins DiscoverX); conditions: TRPM6; 1000 nM; read-out: Percent Control
T7 construct: purchased Eurofins DiscoverX

kinome (kinase panel) [8] = target: T8, kinome (kinase panel) (Homo sapiens, UniProt Q16539); assay: KINOMEscan assay (Eurofins DiscoverX); conditions: p38-alpha (Entrez MAPK14); 1000 nM; read-out: Percent Control
T8 construct: purchased Eurofins DiscoverX

kinome (kinase panel) [9] = target: T9, kinome (kinase panel) (Homo sapiens, UniProt Q9P1W9); assay: KINOMEscan assay (Eurofins DiscoverX); conditions: PIM2; 1000 nM; read-out: Percent Control
T9 construct: purchased Eurofins DiscoverX

kinome (kinase panel) [10] = target: T10, kinome (kinase panel) (Homo sapiens, UniProt Q13554); assay: KINOMEscan assay (Eurofins DiscoverX); conditions: CAMK2B; 1000 nM; read-out: Percent Control
T10 construct: purchased Eurofins DiscoverX

kinome (kinase panel) [11] = target: T11, kinome (kinase panel) (Homo sapiens, UniProt P52333); assay: KINOMEscan assay (Eurofins DiscoverX); conditions: JAK3(JH1domain-catalytic); 1000 nM; read-out: Percent Control
T11 construct: purchased Eurofins DiscoverX

kinome (kinase panel) [12] = target: T12, kinome (kinase panel) (Homo sapiens, UniProt Q9UEW8); assay: KINOMEscan assay (Eurofins DiscoverX); conditions: STK39; 1000 nM; read-out: Percent Control
T12 construct: purchased Eurofins DiscoverX

kinome (kinase panel) [13] = target: T13, kinome (kinase panel) (Homo sapiens, UniProt P54760); assay: KINOMEscan assay (Eurofins DiscoverX); conditions: EPHB4; 1000 nM; read-out: Percent Control
T13 construct: purchased Eurofins DiscoverX

kinome (kinase panel) [14] = target: T14, kinome (kinase panel) (Homo sapiens, UniProt Q8TBX8); assay: KINOMEscan assay (Eurofins DiscoverX); conditions: PIP5K2C (Entrez PIP4K2C); 1000 nM; read-out: Percent Control
T14 construct: purchased Eurofins DiscoverX

kinome (kinase panel) [15] = target: T15, kinome (kinase panel) (Homo sapiens, UniProt O95835); assay: KINOMEscan assay (Eurofins DiscoverX); conditions: LATS1; 1000 nM; read-out: Percent Control
T15 construct: purchased Eurofins DiscoverX

kinome (kinase panel) [16] = target: T16, kinome (kinase panel) (Homo sapiens, UniProt P00519, H396P); assay: KINOMEscan assay (Eurofins DiscoverX)
T16 construct: purchased Eurofins DiscoverX

kinome (kinase panel) [17] = target: T17, kinome (kinase panel) (Homo sapiens, UniProt Q86UX6); assay: KINOMEscan assay (Eurofins DiscoverX); conditions: YANK3 (STK32C); 1000 nM; read-out: Percent Control
T17 construct: purchased Eurofins DiscoverX

kinome (kinase panel) [18] = target: T18, kinome (kinase panel) (Homo sapiens, UniProt Q16620); assay: KINOMEscan assay (Eurofins DiscoverX); conditions: TRKB (NTRK2); 1000 nM; read-out: Percent Control
T18 construct: purchased Eurofins DiscoverX

kinome (kinase panel) [19] = target: T19, kinome (kinase panel) (Homo sapiens, UniProt P48729); assay: KINOMEscan assay (Eurofins DiscoverX); conditions: CSNK1A1; 1000 nM; read-out: Percent Control
T19 construct: purchased Eurofins DiscoverX

kinome (kinase panel) [20] = target: T20, kinome (kinase panel) (Homo sapiens, UniProt P15735); assay: KINOMEscan assay (Eurofins DiscoverX); conditions: PHKG2; 1000 nM; read-out: Percent Control
T20 construct: purchased Eurofins DiscoverX

kinome (kinase panel) [21] = target: T21, kinome (kinase panel) (Homo sapiens, UniProt Q8NEB9); assay: KINOMEscan assay (Eurofins DiscoverX); conditions: VPS34 (PIK3C3); 1000 nM; read-out: Percent Control
T21 construct: purchased Eurofins DiscoverX

kinome (kinase panel) [22] = target: T22, kinome (kinase panel) (Homo sapiens, UniProt Q86UE8); assay: KINOMEscan assay (Eurofins DiscoverX); conditions: TLK2; 1000 nM; read-out: Percent Control
T22 construct: purchased Eurofins DiscoverX

kinome (kinase panel) [23] = target: T23, kinome (kinase panel) (Homo sapiens, UniProt P22607, G697C); assay: KINOMEscan assay (Eurofins DiscoverX); conditions: read-out: Percent Control
T23 construct: purchased Eurofins DiscoverX

kinome (kinase panel) [24] = target: T24, kinome (kinase panel) (Homo sapiens, UniProt P04629); assay: KINOMEscan assay (Eurofins DiscoverX); conditions: TRKA (NTRK1); 1000 nM; read-out: Percent Control
T24 construct: purchased Eurofins DiscoverX

kinome (kinase panel) [25] = target: T25, kinome (kinase panel) (Homo sapiens, UniProt P68400); assay: KINOMEscan assay (Eurofins DiscoverX); conditions: CSNK2A1; 1000 nM; read-out: Percent Control
T25 construct: purchased Eurofins DiscoverX

T18 sequence (Q16620 32-822): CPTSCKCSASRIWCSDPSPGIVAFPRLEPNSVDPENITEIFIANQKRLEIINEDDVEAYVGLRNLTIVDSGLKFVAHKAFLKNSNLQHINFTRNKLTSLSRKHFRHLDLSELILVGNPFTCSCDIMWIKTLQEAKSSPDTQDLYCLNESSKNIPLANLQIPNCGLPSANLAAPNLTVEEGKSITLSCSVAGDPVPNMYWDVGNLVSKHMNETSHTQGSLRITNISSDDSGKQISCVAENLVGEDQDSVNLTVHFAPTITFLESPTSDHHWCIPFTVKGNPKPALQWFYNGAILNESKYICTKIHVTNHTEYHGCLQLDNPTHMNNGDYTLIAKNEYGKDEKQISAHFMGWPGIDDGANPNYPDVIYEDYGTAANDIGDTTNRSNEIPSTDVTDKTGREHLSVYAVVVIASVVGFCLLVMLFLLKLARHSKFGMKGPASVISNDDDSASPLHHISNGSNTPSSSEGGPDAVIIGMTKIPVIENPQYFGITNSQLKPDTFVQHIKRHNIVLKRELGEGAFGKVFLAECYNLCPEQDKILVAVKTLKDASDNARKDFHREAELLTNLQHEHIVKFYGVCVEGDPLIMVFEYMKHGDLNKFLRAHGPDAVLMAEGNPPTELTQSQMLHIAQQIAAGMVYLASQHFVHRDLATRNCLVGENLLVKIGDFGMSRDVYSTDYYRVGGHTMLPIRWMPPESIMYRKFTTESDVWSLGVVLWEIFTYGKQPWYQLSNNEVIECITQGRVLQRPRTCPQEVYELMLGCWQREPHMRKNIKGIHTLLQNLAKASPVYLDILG
T11 sequence (P52333 whole entry): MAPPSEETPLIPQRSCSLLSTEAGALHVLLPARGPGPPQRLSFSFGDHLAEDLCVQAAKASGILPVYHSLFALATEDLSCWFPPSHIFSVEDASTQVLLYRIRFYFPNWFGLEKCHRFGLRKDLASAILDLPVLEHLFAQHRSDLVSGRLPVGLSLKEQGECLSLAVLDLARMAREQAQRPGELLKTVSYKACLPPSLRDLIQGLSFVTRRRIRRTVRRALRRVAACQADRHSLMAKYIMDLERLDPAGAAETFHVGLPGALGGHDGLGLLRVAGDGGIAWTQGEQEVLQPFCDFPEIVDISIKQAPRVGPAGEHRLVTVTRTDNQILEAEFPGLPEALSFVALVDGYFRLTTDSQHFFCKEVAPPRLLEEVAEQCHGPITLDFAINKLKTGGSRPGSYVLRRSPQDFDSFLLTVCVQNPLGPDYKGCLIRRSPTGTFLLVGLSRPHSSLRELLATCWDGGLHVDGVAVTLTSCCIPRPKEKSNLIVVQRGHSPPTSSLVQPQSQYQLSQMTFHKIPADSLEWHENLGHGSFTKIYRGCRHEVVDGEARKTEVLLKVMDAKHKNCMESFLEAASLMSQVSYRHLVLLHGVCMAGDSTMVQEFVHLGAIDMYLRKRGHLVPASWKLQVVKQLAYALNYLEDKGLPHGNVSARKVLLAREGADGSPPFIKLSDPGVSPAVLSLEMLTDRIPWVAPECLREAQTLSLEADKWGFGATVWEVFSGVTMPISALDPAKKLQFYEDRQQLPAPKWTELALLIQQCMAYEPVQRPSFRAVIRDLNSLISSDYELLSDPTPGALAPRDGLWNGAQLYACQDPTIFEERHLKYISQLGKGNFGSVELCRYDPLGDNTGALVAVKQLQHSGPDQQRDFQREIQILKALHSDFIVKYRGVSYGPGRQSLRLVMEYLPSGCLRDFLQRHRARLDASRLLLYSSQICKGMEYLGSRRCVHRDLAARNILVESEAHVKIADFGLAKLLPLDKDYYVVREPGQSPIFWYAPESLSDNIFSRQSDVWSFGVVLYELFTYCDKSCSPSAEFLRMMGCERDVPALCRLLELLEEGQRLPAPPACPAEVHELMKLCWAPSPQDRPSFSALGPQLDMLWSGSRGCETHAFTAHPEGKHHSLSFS
T19 sequence (P48729 whole entry): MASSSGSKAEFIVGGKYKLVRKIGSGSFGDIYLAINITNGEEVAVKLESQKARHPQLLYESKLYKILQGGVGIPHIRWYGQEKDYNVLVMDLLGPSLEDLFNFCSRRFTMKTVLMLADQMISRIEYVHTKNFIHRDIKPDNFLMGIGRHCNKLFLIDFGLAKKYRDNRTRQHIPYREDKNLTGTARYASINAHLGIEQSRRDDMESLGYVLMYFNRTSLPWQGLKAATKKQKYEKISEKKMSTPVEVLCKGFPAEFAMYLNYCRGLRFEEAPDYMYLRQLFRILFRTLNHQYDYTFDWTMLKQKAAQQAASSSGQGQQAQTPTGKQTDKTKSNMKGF
T15 sequence (O95835 whole entry): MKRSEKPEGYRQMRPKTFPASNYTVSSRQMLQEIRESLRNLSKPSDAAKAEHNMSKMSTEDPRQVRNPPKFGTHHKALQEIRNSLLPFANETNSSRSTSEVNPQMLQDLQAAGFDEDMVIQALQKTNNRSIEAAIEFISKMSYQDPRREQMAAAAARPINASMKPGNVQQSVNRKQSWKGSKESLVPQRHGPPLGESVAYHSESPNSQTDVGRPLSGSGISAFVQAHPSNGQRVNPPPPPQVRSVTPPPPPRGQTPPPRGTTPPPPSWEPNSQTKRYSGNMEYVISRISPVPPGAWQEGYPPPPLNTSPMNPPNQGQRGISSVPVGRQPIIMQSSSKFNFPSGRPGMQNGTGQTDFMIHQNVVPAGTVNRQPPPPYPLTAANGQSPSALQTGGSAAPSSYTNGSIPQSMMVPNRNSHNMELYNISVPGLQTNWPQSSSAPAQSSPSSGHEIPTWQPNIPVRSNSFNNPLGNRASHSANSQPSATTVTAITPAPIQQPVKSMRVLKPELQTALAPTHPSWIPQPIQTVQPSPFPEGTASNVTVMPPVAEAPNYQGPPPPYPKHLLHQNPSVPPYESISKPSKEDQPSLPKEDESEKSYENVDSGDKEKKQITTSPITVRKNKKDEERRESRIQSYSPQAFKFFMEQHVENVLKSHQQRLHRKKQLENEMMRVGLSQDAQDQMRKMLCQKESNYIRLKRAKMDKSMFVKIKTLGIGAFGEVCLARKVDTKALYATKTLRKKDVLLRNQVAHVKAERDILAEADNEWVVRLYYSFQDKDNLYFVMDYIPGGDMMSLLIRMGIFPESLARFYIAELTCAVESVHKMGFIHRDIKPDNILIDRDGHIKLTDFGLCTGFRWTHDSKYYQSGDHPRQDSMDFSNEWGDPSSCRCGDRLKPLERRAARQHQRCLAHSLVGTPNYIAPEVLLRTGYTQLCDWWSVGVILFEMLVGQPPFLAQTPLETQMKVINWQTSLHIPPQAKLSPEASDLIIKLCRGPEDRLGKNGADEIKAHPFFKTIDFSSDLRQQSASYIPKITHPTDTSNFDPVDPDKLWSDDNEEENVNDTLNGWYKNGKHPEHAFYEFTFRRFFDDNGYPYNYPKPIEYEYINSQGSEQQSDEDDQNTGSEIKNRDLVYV
T20 sequence (P15735 whole entry): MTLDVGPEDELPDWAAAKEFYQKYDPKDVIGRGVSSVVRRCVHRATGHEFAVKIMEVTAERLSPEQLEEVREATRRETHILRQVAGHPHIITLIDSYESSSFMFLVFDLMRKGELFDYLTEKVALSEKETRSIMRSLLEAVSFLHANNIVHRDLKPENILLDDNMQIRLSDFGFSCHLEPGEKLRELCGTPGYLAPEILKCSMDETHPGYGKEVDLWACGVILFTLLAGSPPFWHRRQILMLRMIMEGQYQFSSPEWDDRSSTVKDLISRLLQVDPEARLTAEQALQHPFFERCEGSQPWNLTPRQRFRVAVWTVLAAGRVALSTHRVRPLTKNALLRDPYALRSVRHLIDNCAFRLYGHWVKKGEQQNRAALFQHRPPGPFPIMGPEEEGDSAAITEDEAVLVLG
T5 sequence (Q96J92 whole entry): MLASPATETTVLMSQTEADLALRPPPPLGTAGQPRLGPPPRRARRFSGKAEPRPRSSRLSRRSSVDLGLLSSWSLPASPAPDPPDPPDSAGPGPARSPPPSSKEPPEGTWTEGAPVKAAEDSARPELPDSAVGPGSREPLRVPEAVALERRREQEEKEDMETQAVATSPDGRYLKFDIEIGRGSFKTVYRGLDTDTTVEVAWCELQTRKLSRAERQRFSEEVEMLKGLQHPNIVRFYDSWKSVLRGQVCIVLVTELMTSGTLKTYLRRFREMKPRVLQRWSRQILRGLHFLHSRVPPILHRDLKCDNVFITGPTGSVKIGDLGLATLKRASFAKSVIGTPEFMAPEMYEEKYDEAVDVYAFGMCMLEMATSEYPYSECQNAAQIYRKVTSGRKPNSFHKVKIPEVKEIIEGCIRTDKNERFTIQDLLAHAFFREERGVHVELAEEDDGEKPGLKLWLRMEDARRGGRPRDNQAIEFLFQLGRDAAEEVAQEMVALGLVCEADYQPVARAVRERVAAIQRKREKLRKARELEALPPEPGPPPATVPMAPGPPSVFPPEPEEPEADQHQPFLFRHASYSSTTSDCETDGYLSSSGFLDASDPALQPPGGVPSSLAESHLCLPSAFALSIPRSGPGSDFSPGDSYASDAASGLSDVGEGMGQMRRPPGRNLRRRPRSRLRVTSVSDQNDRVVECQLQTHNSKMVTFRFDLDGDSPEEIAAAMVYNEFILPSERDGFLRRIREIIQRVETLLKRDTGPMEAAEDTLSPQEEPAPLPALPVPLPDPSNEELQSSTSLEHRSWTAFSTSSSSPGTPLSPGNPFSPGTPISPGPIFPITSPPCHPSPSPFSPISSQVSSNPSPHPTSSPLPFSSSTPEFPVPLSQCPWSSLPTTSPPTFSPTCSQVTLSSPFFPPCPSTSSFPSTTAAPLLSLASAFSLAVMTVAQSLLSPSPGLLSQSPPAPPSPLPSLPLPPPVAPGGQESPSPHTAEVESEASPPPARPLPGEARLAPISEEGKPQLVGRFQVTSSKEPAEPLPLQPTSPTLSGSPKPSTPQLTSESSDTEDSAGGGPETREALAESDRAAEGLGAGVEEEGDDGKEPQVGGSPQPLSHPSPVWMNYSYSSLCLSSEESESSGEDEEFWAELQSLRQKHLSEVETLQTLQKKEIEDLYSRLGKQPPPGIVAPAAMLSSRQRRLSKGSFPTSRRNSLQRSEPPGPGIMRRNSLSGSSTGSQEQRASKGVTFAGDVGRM

Which results are given for `CN(C)C(=O)c1cc2cnc(Nc3ccc(-c4csc5c(=O)cc(N6CCOCC6)oc45)cc3)nc2n1C1CCCC1` [SRX3177]?
specificity in BROMOscan (bromodomain panel): lack of off-targeting; remaining binding at 1 µM (kinome (kinase panel) [1]): 77%; remaining binding at 1 µM (kinome (kinase panel) [2]): 86%; remaining binding at 1 µM (kinome (kinase panel) [3]): 68%; remaining binding at 1 µM (kinome (kinase panel) [4]): 98%; remaining binding at 1 µM (kinome (kinase panel) [5]): 90%; remaining binding at 1 µM (kinome (kinase panel) [6]): 100%; remaining binding at 1 µM (kinome (kinase panel) [7]): 99%; remaining binding at 1 µM (kinome (kinase panel) [8]): 100%; remaining binding at 1 µM (kinome (kinase panel) [9]): 100%; remaining binding at 1 µM (kinome (kinase panel) [10]): 82%; remaining binding at 1 µM (kinome (kinase panel) [11]): 13%; remaining binding at 1 µM (kinome (kinase panel) [12]): 71%; remaining binding at 1 µM (kinome (kinase panel) [13]): 98%; remaining binding at 1 µM (kinome (kinase panel) [14]): 1.8%; remaining binding at 1 µM (kinome (kinase panel) [15]): 91%; Percent Control (kinome (kinase panel) [16]): 52; remaining binding at 1 µM (kinome (kinase panel) [16]; read-out: Percent Control): 57%; remaining binding at 1 µM (kinome (kinase panel) [17]): 91%; remaining binding at 1 µM (kinome (kinase panel) [18]): 40%; remaining binding at 1 µM (kinome (kinase panel) [19]): 83%; remaining binding at 1 µM (kinome (kinase panel) [20]): 97%; remaining binding at 1 µM (kinome (kinase panel) [21]): 46%; remaining binding at 1 µM (kinome (kinase panel) [22]): 100%; remaining binding at 1 µM (kinome (kinase panel) [23]): 89%; remaining binding at 1 µM (kinome (kinase panel) [24]): 1.1%; remaining binding at 1 µM (kinome (kinase panel) [25]): 4.8%
